Experimental data from patent publication US20250319212A1, “GADOLINIUM-BASED COMPOUND, AND MRI CONTRAST AGENT INCLUDING SAME” (KYUNGPOOK NATIONAL UNIVERSITY INDUSTRY-ACADEMIC COOPERATION …, priority 2021, published 2025).

What was measured:
amyloid beta polymer = amyloid beta polymer (Homo sapiens, UniProt P05067); experiment: Amyloid beta polymer targeting ability, phantom experiment on 9.4T MR; assay type: binding; conditions: incubated with amyloid beta polymer 37° C. 24 hours, washed pellet, FIG. 6
Experimental: (1) 221.5 μL of HFIP was added to 1 mg of amyloid beta at a concentration of 1 mM, followed by shaking for 1 hour at room temperature using a shaker to remove preaggregation. (2) The amyloid beta from which the preaggregation was removed was dried, and 221.5 μL of DMSO was added thereto to achieve a 1 mM concentration. Using a mixer and sonicator, a suspension thereof was prepared, and 878.5 μL of PBS (1×, pH 7.4) was added thereto to achieve a 0.2 mM concentration. (3) After incubating the suspension at 37° C. for 4 days using a shaker, the polymerized amyloid beta polymer was dispensed by 200 μL. Then, 20 μL of a solution in which each of Gd-DO3A-Hba and the commercial contrast agent (Gadovist®) was dissolved in PBS at 2 mM concentration was added thereto. The incubation was carried out thereon at 37° C. for 24 hours using a shaker. (4) After 24 hours has elapsed, centrifugation was performed thereon to remove the supernatant therefrom. The amyloid beta polymer was washed using PBS. 200 μL of a solution of PBS:DMSO=9:1 was added to a pellet to prepare an MRI phantom sample. As a control, a phantom sample obtained by incubating only the amyloid beta polymer was used. […]

[1] = Measurement of relaxivity (r1, r2) in 3T MRI phantom; assay type: physicochemical; conditions: tertiary distilled water, 0.0625-1 mM, linear regression, in mM-1·s-1 (unit assumed)
Experimental: The relaxivity (r1, r2) of each of synthesized Gd-DO3A-Hba, and cyclic commercial contrast agents Gadovist® and Dotarem® as comparison groups material was measured. Specifically, a phantom was prepared by diluting the gadolinium complex in tertiary distilled water to five concentrations (0.0625, 0.125, 0.25, 0.5, 1 mM), and then T1 and T2 relaxation times were measured in 3T MRI. Thus, R (Relaxation rate=1/T) of each concentration was calculated and the relaxivity (r1, r2) result of the gadolinium complex was obtained through linear regression analysis (see FIG. 3) and shown in a following Table 1.

amyloid beta polymer, sequence (P05067 672-713 limits assumed): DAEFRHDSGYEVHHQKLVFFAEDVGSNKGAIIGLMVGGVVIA

SMILES	signal intensity / contrast enhancement compared to phantom of only amyloid beta polymer (amyloid beta polymer)	relaxivity r1 [1]	relaxivity r2 [1]
O=C([O-])CN1CCN(CC(=O)[O-])CCN([C@H](CO)[C@H](O)CO)CCN(CC(=O)[O-])CC1.[Gd+3] (racemic) [Gadovist ®]	little difference in contrast enhancement effect	3.9 ± 0.1	4.9 ± 0.1
O=C([O-])CN1CCN(CC(=O)[O-])CCN(CC(=O)[O-])CCN(CC(=O)[O-])CC1.[Gd+3] [Dotarem ®, Gd-DOTA]		3.4 ± 0.1	3.9 ± 0.2
